Where “and” joins values, the source holds several entries; their conditions need not be identical. Equal entries are not always repeated. Inconclusive results and toxic doses are left out. Rule as the data show it: active = T/C of 150% or more; inactive = T/C below 125%.
Test system: L1210 leukemia ip in BDF1 mice, survival T/C
Experiment: NCI In Vivo Anticancer Drug Screen. Data for tumor model L1210 Leukemia (intraperitoneal) in B6D2F1 (BDF1) mice
Details: endpoint: mean survival time, higher = longer survival
How it was run: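 Survival endpoint. Drug-treated group vs vehicle group, expressed as T divided by C. Tumor passaged by transplantation.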

[1] = dose: 100.0 mg/kg/injection, schedule: Q04DX003 (ip), vehicle: saline with Tween-80
[2] = dose: 200.0 mg/kg/injection, schedule: Q04DX003 (ip), vehicle: saline with Tween-80
[3] = dose: 400.0 mg/kg/injection, schedule: Q04DX003 (ip), vehicle: saline with Tween-80
[4] = dose: 100.0 mg/kg/injection, schedule: Q01DX001 (ip), vehicle: other
[5] = dose: 200.0 mg/kg/injection, schedule: Q01DX001 (ip), vehicle: other
[6] = dose: 100.0 mg/kg/injection, schedule: Q01DX009 (ip), vehicle: saline with Tween-80
[7] = dose: 100.0 mg/kg/injection, schedule: Q04DX003 (ip), vehicle: Klucel (hydroxypropylcellulose) (HPC)
[8] = dose: 200.0 mg/kg/injection, schedule: Q01DX009 (ip), vehicle: saline with Tween-80
[9] = dose: 200.0 mg/kg/injection, schedule: Q04DX003 (ip), vehicle: Klucel (hydroxypropylcellulose) (HPC)
[10] = dose: 400.0 mg/kg/injection, schedule: Q04DX003 (ip), vehicle: Klucel (hydroxypropylcellulose) (HPC)

Measured: T/C

CCC(C)C1CC1(Br)Br (stereo not given)
inactive: [1] 100 % of control | [2] 100 % of control | [3] 98 % of control

Cc1ccc2c(c1)c(C)cc(=O)n2C
inactive: [4] 96 % of control | [5] 117 % of control

CCC1(O)C2CCCC1CCC2 (stereo not given)
inactive: [6] 97 % of control | [7] 97 % of control | [8] 94 % of control | [9] 92 % of control | dose: 400.0 mg/kg/injection, schedule: Q01DX009 (ip), vehicle: saline with Tween-80 97 % of control | [10] 97 % of control

Cc1ccc(N2C(=O)C=C(c3ccccc3)C2=O)cc1
inactive: dose: 75.0 mg/kg/injection, schedule: Q04DX003 (ip), vehicle: Klucel (hydroxypropylcellulose) (HPC) 104 % of control | dose: 150.0 mg/kg/injection, schedule: Q04DX003 (ip), vehicle: Klucel (hydroxypropylcellulose) (HPC) 105 % of control | dose: 300.0 mg/kg/injection, schedule: Q04DX003 (ip), vehicle: Klucel (hydroxypropylcellulose) (HPC) 104 % of control

CCCCCCCCOC(=O)c1[nH]cnc1/N=N\N(C)C
inactive: dose: 45.0 mg/kg/injection, schedule: Q01DX015 (ip), vehicle: other 103 % of control | dose: 88.0 mg/kg/injection, schedule: Q01DX001 (ip), vehicle: other 96 % of control | [4] 102 % of control | dose: 133.0 mg/kg/injection, schedule: Q01DX001 (ip), vehicle: other 88 % of control | dose: 133.0 mg/kg/injection, schedule: Q01DX009 (ip), vehicle: other 101 % of control | dose: 180.0 mg/kg/injection, schedule: Q01DX015 (ip), vehicle: other 122 % of control | [5] 109 % of control and 90 % of control | dose: 200.0 mg/kg/injection, schedule: Q01DX009 (ip), vehicle: other 95 % of control | dose: 300.0 mg/kg/injection, schedule: Q01DX001 (ip), vehicle: other 100 % of control | dose: 300.0 mg/kg/injection, schedule: Q01DX009 (ip), vehicle: other 100 % of control | dose: 400.0 mg/kg/injection, schedule: Q01DX001 (ip), vehicle: other 104 % of control | dose: 450.0 mg/kg/injection, schedule: Q01DX009 (ip), vehicle: other 97 % of control

Cc1[nH]ccc2cc3nc4ccccc4c3cc12
inactive: dose: 50.0 mg/kg/injection, schedule: Q01DX001 (ip), vehicle: saline 103 % of control | dose: 100.0 mg/kg/injection, schedule: Q01DX001 (ip), vehicle: saline 104 % of control | dose: 200.0 mg/kg/injection, schedule: Q01DX001 (ip), vehicle: saline 102 % of control | dose: 400.0 mg/kg/injection, schedule: Q01DX001 (ip), vehicle: saline 103 % of control

BrCOCCCCOCBr
inactive: dose: 44.0 mg/kg/injection, schedule: Q01DX009 (ip), vehicle: saline with Tween-80 109 % of control | dose: 50.0 mg/kg/injection, schedule: Q01DX001 (ip), vehicle: saline with Tween-80 102 % of control | dose: 50.0 mg/kg/injection, schedule: Q01DX009 (ip), vehicle: saline with Tween-80 108 % of control | dose: 50.0 mg/kg/injection, schedule: Q04DX002 (ip), vehicle: saline with Tween-80 105 % of control | dose: 50.0 mg/kg/injection, schedule: Q04DX003 (ip), vehicle: saline with Tween-80 110 % of control | dose: 67.0 mg/kg/injection, schedule: Q01DX009 (ip), vehicle: saline with Tween-80 112 % of control | dose: 100.0 mg/kg/injection, schedule: Q01DX001 (ip), vehicle: saline with Tween-80 102 % of control | [6] 109 % of control | dose: 100.0 mg/kg/injection, schedule: Q04DX002 (ip), vehicle: saline with Tween-80 107 % of control | [1] 107 % of control | dose: 150.0 mg/kg/injection, schedule: Q01DX009 (ip), vehicle: saline with Tween-80 107 % of control | dose: 200.0 mg/kg/injection, schedule: Q01DX001 (ip), vehicle: saline with Tween-80 104 % of control | [8] 104 % of control | dose: 200.0 mg/kg/injection, schedule: Q04DX002 (ip), vehicle: saline with Tween-80 105 % of control | [2] 109 % of control | dose: 400.0 mg/kg/injection, schedule: Q01DX001 (ip), vehicle: saline with Tween-80 107 % of control | dose: 400.0 mg/kg/injection, schedule: Q04DX002 (ip), vehicle: saline with Tween-80 91 % of control | [3] 103 % of control

O=C(NCCCCCCCCCCCCNC(=O)Nc1cccc(C2=NCC(O)CN2)c1)Nc1cccc(C2=NCC(O)CN2)c1 (stereo not given)
inactive: dose: 62.5 mg/kg/injection, schedule: Q01DX Z (ip), vehicle: carboxymethylcellulose (CMC) 105 % of control | dose: 125.0 mg/kg/injection, schedule: Q01DX Z (ip), vehicle: carboxymethylcellulose (CMC) 94 % of control

O=[N+]([O-])c1ccc(OCCCBr)c(Cl)c1
inactive: dose: 100.0 mg/kg/injection, schedule: Q01DX009 (ip), vehicle: saline 103 % of control | dose: 200.0 mg/kg/injection, schedule: Q01DX009 (ip), vehicle: saline 108 % of control | dose: 400.0 mg/kg/injection, schedule: Q01DX009 (ip), vehicle: saline 120 % of control

COc1ccc(/C=C/c2nc3ccccc3nc2/C=C/c2ccc(OC)c(OC)c2)cc1OC
inactive: dose: 100.0 mg/kg/injection, schedule: Q01DX009 (ip), vehicle: Klucel (hydroxypropylcellulose) (HPC) 95 % of control | [7] 88 % of control | dose: 200.0 mg/kg/injection, schedule: Q01DX009 (ip), vehicle: Klucel (hydroxypropylcellulose) (HPC) 86 % of control | [9] 91 % of control | [10] 97 % of control

CC(C)OC(=O)Nc1cccc(Br)c1
inactive: dose: 100.0 mg/kg/injection, schedule: Q04DX002 (ip), vehicle: Klucel (hydroxypropylcellulose) (HPC) 92 % of control | dose: 200.0 mg/kg/injection, schedule: Q04DX002 (ip), vehicle: Klucel (hydroxypropylcellulose) (HPC) 106 % of control | dose: 400.0 mg/kg/injection, schedule: Q04DX002 (ip), vehicle: Klucel (hydroxypropylcellulose) (HPC) 95 % of control

O=C(CCCN1CCC(O)(c2ccc(Cl)cc2)CC1)c1ccc(F)cc1
inactive: dose: 1.25 mg/kg/injection, schedule: Q01DX009 (ip), vehicle: saline 90 % of control | dose: 2.5 mg/kg/injection, schedule: Q01DX009 (ip), vehicle: Klucel (hydroxypropylcellulose) (HPC) 92 % of control | dose: 2.5 mg/kg/injection, schedule: Q01DX009 (ip), vehicle: saline 100 % of control | dose: 2.5 mg/kg/injection, schedule: Q04DX003 (ip), vehicle: saline 114 % of control | dose: 5.0 mg/kg/injection, schedule: Q01DX009 (ip), vehicle: Klucel (hydroxypropylcellulose) (HPC) 95 % of control | dose: 5.0 mg/kg/injection, schedule: Q01DX009 (ip), vehicle: saline 113 % of control | dose: 5.0 mg/kg/injection, schedule: Q04DX003 (ip), vehicle: saline 101 % of control | dose: 10.0 mg/kg/injection, schedule: Q01DX009 (ip), vehicle: Klucel (hydroxypropylcellulose) (HPC) 100 % of control | dose: 10.0 mg/kg/injection, schedule: Q01DX009 (ip), vehicle: saline 121 % of control | dose: 10.0 mg/kg/injection, schedule: Q04DX003 (ip), vehicle: saline 124 % of control | dose: 20.0 mg/kg/injection, schedule: Q01DX009 (ip), vehicle: Klucel (hydroxypropylcellulose) (HPC) 111 % of control | dose: 20.0 mg/kg/injection, schedule: Q01DX009 (ip), vehicle: saline 90 % of control | dose: 20.0 mg/kg/injection, schedule: Q04DX003 (ip), vehicle: saline 101 % of control | dose: 40.0 mg/kg/injection, schedule: Q01DX009 (ip), vehicle: saline 90 % of control | dose: 40.0 mg/kg/injection, schedule: Q04DX003 (ip), vehicle: saline 101 % of control | dose: 80.0 mg/kg/injection, schedule: Q04DX003 (ip), vehicle: Klucel (hydroxypropylcellulose) (HPC) 110 % of control | dose: 160.0 mg/kg/injection, schedule: Q04DX003 (ip), vehicle: Klucel (hydroxypropylcellulose) (HPC) 106 % of control

CCCC(CN)(CCN1CCOCC1)c1cccc2ccccc12 (stereo not given)
inactive: dose: 100.0 mg/kg/injection, schedule: Q04DX003 (ip), vehicle: saline 98 % of control | dose: 200.0 mg/kg/injection, schedule: Q04DX003 (ip), vehicle: saline 95 % of control

Reference: PubChem BioAssay AID248 (DTP/NCI, 2004)
